Legend:
PI3Kδ = biological target: T1, PI3Kδ (Homo sapiens, UniProt O00329); experiment: PI3Kδ kinase assay (HTRF, PIP3 detection); assay type: biochemical; conditions: for PI3Kδ @ 0.01 μM (% Inh): 0.01 μM compound; for PI3Kδ @ 0.01 μM (% Inh) / PI3Kδ @ 0.1 μM (% Inh) / PI3Kδ @ 1 μM (% Inh): 10 μM ATP; for PI3Kδ @ 0.1 μM (% Inh): 0.1 μM compound; for PI3Kδ @ 1 μM (% Inh): 1 μM compound; for IC50: 10 dose IC50, 10 μM ATP
T1 construct: purchased Reaction Biology Corporation
Source text: (§1) Compounds of the invention were profiled in a 10 dose IC50 panel against BTK and PI3Kδ, both provided by Reaction Biology Corporation.
PI3Kδ assay: The PIP3 product is detected by displacement of biotin-PIP3 from an energy transfer complex consisting of Europium labeled anti-GST monoclonal antibody, a GST-tagged pleckstrin homology (PH) domain, biotinylated PIP3 and Streptavidin-Allophycocyanin (APC). […] The PIP3 product formed by PI 3-Kinase(h) activity displaces biotin-PIP3 from the complex resulting in a loss of energy transfer and thus a decrease in signal. This is a 3-step reaction: First, the kinase reaction with PIP2 substrate is carried out in the presence of ATP (10 μM), and the reaction is quenched with stop Solution, and then finally detect by adding Detection Mixture followed by incubation (10 min). Reaction procedure: 1) Prepare substrate in freshly prepared Reaction Buffer. 2) Deliver kinase into the substrate solution and gently mix. 3) Deliver compounds in 100% DMSO (1 μM) into the kinase reaction mixture by Acoustic technology (Echo550; nanoliter range), incubate for 10 min at RT. 4) Deliver ATP into the reaction mixture to initiate the reaction. 5) Incubate for 30 min at 30° C. 6) Quench the reaction with Stop Solution. 7) Add Detection Mixture, and incubate for overnight. […] The emission ratio is converted into μM PIP3 production based on PIP3 standard curves. The nonlinear regression to obtain the standard curve and IC50 values are performed using Graphpad Prism software. Assay Buffer: HEPES 50 mM (pH7.0), NaN3 0.02%, BSA 0.01%, Orthovanadate 0.1 mM, 1% DMSO. Detection buffer: HEPES 10 mM (pH7.0), BSA 0.02%, KF 0.16 M, EDTA 4 mM. Substrate: 10 μM PIP2 substrate (PI(4,5)P2).

BTK = biological target: T2, BTK (Homo sapiens, UniProt Q06187); experiment: BTK kinase assay (HotSpot, 33P ATP); assay type: biochemical; conditions: for BTK @ 0.01 μM (% Inh): 0.01 μM compound; for BTK @ 0.01 μM (% Inh) / BTK @ 0.1 μM (% Inh) / BTK @ 1 μM (% Inh): 10 μM ATP; for BTK @ 0.1 μM (% Inh): 0.1 μM compound; for BTK @ 1 μM (% Inh): 1 μM compound; for IC50: 10 dose IC50, 10 μM ATP
T2 construct: purchased Reaction Biology Corporation
T2 sequence (Q06187 whole entry): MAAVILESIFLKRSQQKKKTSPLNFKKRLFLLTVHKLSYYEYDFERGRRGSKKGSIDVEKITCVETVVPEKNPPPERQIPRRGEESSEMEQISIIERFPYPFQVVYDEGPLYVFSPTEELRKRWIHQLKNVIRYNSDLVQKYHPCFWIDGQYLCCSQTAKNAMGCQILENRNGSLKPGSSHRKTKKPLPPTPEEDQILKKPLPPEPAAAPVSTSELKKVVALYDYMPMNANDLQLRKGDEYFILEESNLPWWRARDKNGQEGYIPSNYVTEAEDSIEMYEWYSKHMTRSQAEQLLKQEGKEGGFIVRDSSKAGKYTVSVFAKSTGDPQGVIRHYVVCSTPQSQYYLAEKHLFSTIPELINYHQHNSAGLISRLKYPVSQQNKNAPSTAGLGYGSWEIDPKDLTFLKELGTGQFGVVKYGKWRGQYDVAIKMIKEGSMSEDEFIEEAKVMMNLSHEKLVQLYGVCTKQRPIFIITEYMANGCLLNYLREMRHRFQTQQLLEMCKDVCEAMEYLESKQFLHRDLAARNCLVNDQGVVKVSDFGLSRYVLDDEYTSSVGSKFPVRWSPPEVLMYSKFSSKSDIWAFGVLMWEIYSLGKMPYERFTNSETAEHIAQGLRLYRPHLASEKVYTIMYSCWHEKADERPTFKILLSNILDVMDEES
Protocol: as §1
BTK assay: In vitro profiling protein kinases was performed using the “HotSpot” assay platform. Briefly, specific kinase/substrate pairs along with required cofactors were prepared in reaction buffer. Compounds were prepared as 10 mM stock solutions in DMSO. Compounds were delivered into the reaction, followed 15-20 minutes later by addition of a mixture of ATP (Sigma, St. Louis Mo.) and ^33P ATP (Perkin Elmer, Waltham Mass.) to a final concentration of 10 μM. […] IC50 values and curve fits were obtained using Prism (GraphPad Software). Buffer Conditions: 20 mM Hepes (pH 7.5), 10 mM MgCl2, 1 mM EGTA, 0.02% Brij35, 0.02 mg/mL BSA, 0.1 mM Na3VO4, 2 mM DTT, 1% DMSO.

T1 sequence (O00329 whole entry): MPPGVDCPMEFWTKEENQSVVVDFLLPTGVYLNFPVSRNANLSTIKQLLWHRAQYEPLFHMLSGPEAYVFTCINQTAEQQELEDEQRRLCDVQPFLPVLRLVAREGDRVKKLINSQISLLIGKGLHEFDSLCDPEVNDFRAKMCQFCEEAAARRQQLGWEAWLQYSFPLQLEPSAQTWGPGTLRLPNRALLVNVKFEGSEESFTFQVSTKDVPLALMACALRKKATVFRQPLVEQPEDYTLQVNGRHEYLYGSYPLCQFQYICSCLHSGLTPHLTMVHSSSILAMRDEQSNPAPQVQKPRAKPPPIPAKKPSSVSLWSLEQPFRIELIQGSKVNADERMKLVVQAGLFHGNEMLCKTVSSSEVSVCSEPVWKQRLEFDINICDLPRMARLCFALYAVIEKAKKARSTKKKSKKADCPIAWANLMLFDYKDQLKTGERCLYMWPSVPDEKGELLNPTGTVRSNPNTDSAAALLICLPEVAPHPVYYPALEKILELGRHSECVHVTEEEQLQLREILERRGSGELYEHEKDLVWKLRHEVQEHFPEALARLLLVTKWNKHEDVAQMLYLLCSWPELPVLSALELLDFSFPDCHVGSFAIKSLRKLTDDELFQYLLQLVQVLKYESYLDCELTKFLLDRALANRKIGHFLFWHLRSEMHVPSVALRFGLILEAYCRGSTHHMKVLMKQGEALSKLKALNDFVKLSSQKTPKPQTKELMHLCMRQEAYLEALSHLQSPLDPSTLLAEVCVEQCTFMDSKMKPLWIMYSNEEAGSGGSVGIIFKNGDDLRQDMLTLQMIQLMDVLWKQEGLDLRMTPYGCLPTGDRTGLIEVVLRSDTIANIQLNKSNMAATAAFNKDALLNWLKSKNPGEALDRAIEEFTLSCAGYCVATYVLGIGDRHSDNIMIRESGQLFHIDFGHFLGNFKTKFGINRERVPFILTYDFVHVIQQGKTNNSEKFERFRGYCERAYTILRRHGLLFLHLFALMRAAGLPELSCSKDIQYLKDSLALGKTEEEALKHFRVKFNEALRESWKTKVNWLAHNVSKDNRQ
T1 sequence (P27986 whole entry partner): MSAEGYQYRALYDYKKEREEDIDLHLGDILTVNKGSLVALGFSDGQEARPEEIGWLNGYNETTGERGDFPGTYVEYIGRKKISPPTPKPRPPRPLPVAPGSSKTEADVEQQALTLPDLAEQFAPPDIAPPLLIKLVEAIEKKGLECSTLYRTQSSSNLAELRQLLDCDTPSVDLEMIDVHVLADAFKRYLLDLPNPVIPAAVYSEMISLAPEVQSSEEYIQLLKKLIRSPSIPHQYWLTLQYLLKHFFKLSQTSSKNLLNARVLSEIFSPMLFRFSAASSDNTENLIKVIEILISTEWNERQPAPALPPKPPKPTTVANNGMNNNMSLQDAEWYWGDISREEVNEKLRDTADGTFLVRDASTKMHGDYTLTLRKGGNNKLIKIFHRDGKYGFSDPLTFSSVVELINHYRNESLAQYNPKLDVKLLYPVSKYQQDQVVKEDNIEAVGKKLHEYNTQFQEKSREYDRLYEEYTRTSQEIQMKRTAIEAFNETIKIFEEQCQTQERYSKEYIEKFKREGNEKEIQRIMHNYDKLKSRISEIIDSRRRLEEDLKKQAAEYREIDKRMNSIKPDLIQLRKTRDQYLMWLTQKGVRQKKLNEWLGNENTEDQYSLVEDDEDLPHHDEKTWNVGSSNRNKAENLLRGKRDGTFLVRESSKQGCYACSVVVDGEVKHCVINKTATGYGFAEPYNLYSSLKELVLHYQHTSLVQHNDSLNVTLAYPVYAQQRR

Compound	PI3Kδ @ 0.01 μM (% Inh) (PI3Kδ)	PI3Kδ @ 0.1 μM (% Inh) (PI3Kδ)	BTK @ 0.01 μM (% Inh) (BTK)	BTK @ 0.1 μM (% Inh) (BTK)	PI3Kδ @ 1 μM (% Inh) (PI3Kδ)	IC50 (PI3Kδ) [µM]	BTK @ 1 μM (% Inh) (BTK)	IC50 (BTK) [µM]
Nc1ncnc2c1c(-c1cccc(F)c1)nn2C1Cc2ccccc2C1 [Compound No. 88, 1-(2,3-dihydro-1H-inden-2-yl)-3-(3-fluorophenyl)-1H-pyrazolo[3,4-d]pyrimidin-4-amine]	18.98	15.89	7.67	17.55	–	–	–	–
COc1cc(-c2nn(C3Cc4ccccc4C3)c3ncnc(N)c23)cc(F)c1F [Compound No. 91, 3-(3,4-difluoro-5-methoxyphenyl)-1-(2,3-dihydro-1H-inden-2-yl)-1H-pyrazolo[3,4-d]pyrimidin-4-amine]	−1.19	19.59	8	33.72	–	–	–	–
NCc1ccc(-c2nn(C3Cc4ccccc4C3)c3ncnc(N)c23)cc1 [compound 138, 3-[4-(aminomethyl)phenyl]-1-(2,3-dihydro-1H-inden-2-yl)-1H-pyrazolo[3,4-d]pyrimidin-4-amine]	−2.71	5.54	−7.89	−6.05	–	–	–	–
Nc1ncnc2c1c(-c1ccc(CO)cc1)nn2C1Cc2ccccc2C1 [Compound No. 55, {4-[4-amino-1-(2,3-dihydro-1H-inden-2-yl)-1H-pyrazolo[3,4-d]pyrimidin-3-yl]phenyl}methanol]	–	15.60	–	14.00	48.96	10.4	50.29	2.09
Nc1nccn2c(C3Cc4ccccc4C3)nc(-c3cc(O)c(F)c(F)c3)c12 [compound 140, 5-[8-amino-3-(2,3-dihydro-1H-inden-2-yl)imidazo[1,5-a]pyrazin-1-yl]-2,3-difluorophenol]	31.54	79.18	83.98	96.04	–	–	–	–
Nc1ncnc2c1c(/C=C/CO)nn2C1Cc2ccccc2C1 (single isomer, unassigned) [Compound No. 64, (2E)-3-[4-amino-1-(2,3-dihydro-1H-inden-2-yl)-1H-pyrazolo[3,4-d]pyrimidin-3-yl]prop-2-en-1-ol]	–	0.0	–	2.74	4.07	–	5.76	–
COc1c(Cl)ccc(-c2nn(C3Cc4ccccc4C3)c3ncnc(N)c23)c1Cl [Compound No. 95, 3-(2,4-dichloro-3-methoxyphenyl)-1-(2,3-dihydro-1H-inden-2-yl)-1H-pyrazolo[3,4-d]pyrimidin-4-amine]	3.09	25.54	7	11.01	–	–	–	–
Nc1ccc2c(c1)CC(n1nc(-c3cc(O)c(F)c(F)c3)c3c(N)ncnc31)C2 (centres unmarked) [compound 139, 5-[4-amino-1-(5-amino-2,3-dihydro-1H-inden-2-yl)-1H-pyrazolo[3,4-d]pyrimidin-3-yl]-2,3-difluorophenol]	65.26	90.95	80.96	95.07	–	–	–	–
C=CC(=O)N1CC(n2nc(-c3cnc(OC)c(F)c3)c3c(N)ncnc32)Cc2cc(C)ccc21 (centres unmarked) [compound 32, 1-(3-(4-amino-3-(5-fluoro-6-methoxypyridin-3-yl)-1H-pyrazolo[3,4-d]pyrimidin-1-yl)-6-methyl-3,4-dihydroquinolin-1 (2H)-yl)prop-2-en-1-one]	–	11.3	–	13.50	–	1.49	–	0.877
COc1cc(F)cc(-c2cn(C3Cc4ccccc4C3)c3ncnc(N)c23)c1 [Compound No. 62, 7-(2,3-dihydro-1H-inden-2-yl)-5-(3-fluoro-5-methoxyphenyl)-7H-pyrrolo[2,3-d]pyrimidin-4-amine]	–	17.28	–	57.13	43.03	–	91.61	–
Nc1ncnc2c1c(-c1ccc3cc[nH]c3c1)nn2C1CCc2ccccc21 (centres unmarked) [compound 37, 1-(2,3-dihydro-1H-inden-1-yl)-3-(1H-indol-6-yl)-1H-pyrazolo[3,4-d]pyrimidin-4-amine]	–	15.52	–	29.59	–	–	–	–
N#Cc1cc(-c2nn(C3Cc4ccccc4C3)c3ncnc(N)c23)ccc1F [Compound No. 97, 5-[4-amino-1-(2,3-dihydro-1H-inden-2-yl)-1H-pyrazolo[3,4-d]pyrimidin-3-yl]-2-fluorobenzonitrile]	24.66	29.59	11.7	14.06	–	–	–	–
COc1cc(F)cc(-c2nn(C3CCc4ccccc4C3)c3ncnc(N)c23)c1 (centres unmarked) [compound 7, 3-(3-fluoro-5-methoxyphenyl)-1-(1,2,3,4-tetrahydronaphthalen-2-yl)-1H-pyrazolo[3,4-d]pyrimidin-4-amine]	–	–	–	–	–	1.34	–	0.891
Nc1ncnc2c1c(-c1ccc(F)cc1)nn2C1CCc2ccccc2C1 (racemic) [compound 13, 3-(4-fluorophenyl)-1-(1,2,3,4-tetrahydronaphthalen-2-yl)-1H-pyrazolo[3,4-d]pyrimidin-4-amine]	–	–	–	–	–	2.39	–	0.0698
CCOc1cc(-c2nn(C3Cc4ccccc4C3)c3ncnc(N)c23)ccc1OC(F)(F)F [Compound No. 76, 1-(2,3-dihydro-1H-inden-2-yl)-3-[3-ethoxy-4-(trifluoromethoxy)phenyl]-1H-pyrazolo[3,4-d]pyrimidin-4-amine]	–	−13.69	–	5.47	13.55	–	6.5	–
Cc1ccc(-c2nn(C3Cc4ccccc4C3)c3ncnc(N)c23)cc1N [Compound No. 46, 3-(3-amino-4-methylphenyl)-1-(2,3-dihydro-1H-inden-2-yl)-1H-pyrazolo[3,4-d]pyrimidin-4-amine]	–	30.55	–	85.71	67.34	1.29	96.3	0.0212
Cn1ncc2c(-c3nn(C4Cc5ccccc5C4)c4ncnc(N)c34)cccc21 [Compound No. 98, 1-(2,3-dihydro-1H-inden-2-yl)-3-(1-methyl-1H-indazol-4-yl)-1H-pyrazolo[3,4-d]pyrimidin-4-amine]	14.09	19.14	8.24	12.62	–	–	–	–
Nc1ncnc2c1c(-c1ccc3c(c1)NCCO3)nn2C1Cc2ccccc2C1 [Compound No. 99, 1-(2,3-dihydro-1H-inden-2-yl)-3-(3,4-dihydro-2H-1,4-benzoxazin-6-yl)-1H-pyrazolo[3,4-d]pyrimidin-4-amine]	17.4	39.74	17.69	56.81	–	0.167	–	0.0796
Nc1ncnc2c1c(-c1ccc(O)nc1)nn2C1CCc2ccccc2C1 (centres unmarked) [compound 24, 5-(4-amino-1-(1,2,3,4-tetrahydronaphthalen-2-yl)-1H-pyrazolo[3,4-d]pyrimidin-3-yl)pyridin-2-ol]	–	10.3	–	5.45	–	–	–	–
COc1ccc(-c2nn(C3Cc4ccccc4C3)c3ncnc(N)c23)c(OC)c1OC [Compound No. 83, 1-(2,3-dihydro-1H-inden-2-yl)-3-(2,3,4-trimethoxyphenyl)-1H-pyrazolo[3,4-d]pyrimidin-4-amine]	–	−5.17	–	10.79	13.54	–	18.4	–
Nc1ncnc2c1c(-c1cccc(O)c1)nn2C1Cc2ccccc2C1 [Compound No. 40, 3-[4-amino-1-(2,3-dihydro-1H-inden-2-yl)-1H-pyrazolo[3,4-d]pyrimidin-3-yl]phenol]	–	41.21	–	66.35	–	–	–	–
